Test results as given in patent US7786141B2 (Vertex Pharmaceuticals Incorporated, priority 2004, dated 2010).

How the values were obtained:
M1 muscarinic receptor = molecular target: T1, M1 muscarinic receptor (Homo sapiens, UniProt P11229); test: Functional mobilization of intracellular calcium (FLIPR) in M1-CHO cells; type: cell-based; settings: Table 4; for Emax: 100% efficacy is the maximum response obtained with the Carbachol control; for M1 Activity: modulating M1 receptor
T1 construct: expressed in transfected cells; host or cells: CHO (M1-CHO)
T1 sequence (P11229 1-460): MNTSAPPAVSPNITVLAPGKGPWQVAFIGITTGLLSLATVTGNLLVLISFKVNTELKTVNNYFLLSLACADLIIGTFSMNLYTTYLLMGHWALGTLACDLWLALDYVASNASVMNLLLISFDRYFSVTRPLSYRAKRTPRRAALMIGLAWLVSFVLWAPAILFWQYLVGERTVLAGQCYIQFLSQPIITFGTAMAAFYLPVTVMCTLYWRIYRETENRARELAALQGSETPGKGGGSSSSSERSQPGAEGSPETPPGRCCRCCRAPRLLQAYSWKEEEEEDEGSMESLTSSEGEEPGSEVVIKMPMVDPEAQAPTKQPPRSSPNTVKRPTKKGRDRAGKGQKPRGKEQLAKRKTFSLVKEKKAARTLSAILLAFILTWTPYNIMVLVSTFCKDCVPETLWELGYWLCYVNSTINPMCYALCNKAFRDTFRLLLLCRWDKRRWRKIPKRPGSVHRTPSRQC
How it was run: (§1)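 Intracellular calcium rise is measured by FLIPR fluorescence over 60 sec in CHO cells carrying human M1 or M4 receptors. Compounds are tested alone as agonists, or pre-incubated 15 min (or co-applied) ahead of carbachol at its EC80 to detect inhibition.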

M4 muscarinic receptor = molecular target: T2, M4 muscarinic receptor (Homo sapiens, UniProt P08173); test: Functional mobilization of intracellular calcium (FLIPR) in M4-CHO cells; type: cell-based; settings: Table 4; for Emax: 100% efficacy is the maximum response obtained with the Carbachol control; for M4 Activity: modulating M4 receptor
T2 construct: expressed in transfected cells; host or cells: CHO (M4-CHO)
T2 sequence (P08173 1-479): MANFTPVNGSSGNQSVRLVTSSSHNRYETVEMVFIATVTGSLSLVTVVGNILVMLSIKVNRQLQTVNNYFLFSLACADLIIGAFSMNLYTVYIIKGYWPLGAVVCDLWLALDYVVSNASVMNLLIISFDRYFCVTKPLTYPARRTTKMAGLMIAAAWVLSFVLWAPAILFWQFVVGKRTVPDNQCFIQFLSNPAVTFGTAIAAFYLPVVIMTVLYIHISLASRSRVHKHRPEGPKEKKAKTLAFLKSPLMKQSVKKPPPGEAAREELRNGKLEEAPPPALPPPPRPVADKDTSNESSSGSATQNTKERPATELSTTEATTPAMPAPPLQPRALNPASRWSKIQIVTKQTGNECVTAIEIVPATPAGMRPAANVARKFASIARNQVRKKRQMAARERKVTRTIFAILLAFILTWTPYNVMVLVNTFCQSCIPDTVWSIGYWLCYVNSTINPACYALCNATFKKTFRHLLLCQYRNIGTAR
How it was run: as §1

SMILES | Emax (M1 muscarinic receptor) [%] | M1 Activity (M1 muscarinic receptor) | Emax (M4 muscarinic receptor) [%] | M4 Activity (M4 muscarinic receptor)
CC(=O)N[C@H]1CCC2(CCN(CCC3CC4CCC3C4)CC2)c2ccccc21 (stereo partly shown) [compound 581] | 25 to 100 | xxx (activity was measured to be less than 2.0 μM) | < 25 | xxx (activity was measured to be less than 2.0 μM)
CCOC(=O)N1C2CCC1CC(N1CCC3(CC1)CN(C(C)=O)c1ccc(C(F)(F)F)cc13)C2 (stereo not shown) [compound 583] | 25 to 100 | xxx (activity was measured to be less than 2.0 μM) | 25 to 100 | xxx (activity was measured to be less than 2.0 μM)
CN(C)C(=O)N1CC2(CCN(C[C@@H]3CCN(C(=O)OCC4CC4)C3)CC2)c2cc(F)ccc21 [compound 584] | 25 to 100 | xxx (activity was measured to be less than 2.0 μM) | 25 to 100 | xxx (activity was measured to be less than 2.0 μM)
CCOC(=O)N1CCC(N2CCC3(CC2)CN(c2ccccn2)c2ccc(F)cc23)CC1 [compound 585] | 25 to 100 | xxx (activity was measured to be less than 2.0 μM) | 25 to 100 | xxx (activity was measured to be less than 2.0 μM)
COC(=O)NC1CC2(CCN(C3C[C@@H]4CC[C@@H]3C4)CC2)c2ccccc21 (stereo partly shown) [compound 586] | 25 to 100 | xxx (activity was measured to be less than 2.0 μM) | 25 to 100 | xxx (activity was measured to be less than 2.0 μM)
CCOC(=O)N1CCC(N2CCCC3(CC2)CN(C(C)=O)c2ccc(F)cc23)CC1 (stereo not shown) [compound 587] | 25 to 100 | xxx (activity was measured to be less than 2.0 μM) | 25 to 100 | xxx (activity was measured to be less than 2.0 μM)
CN(C)C(=O)N1CC2(CCN(C3CCN(C(=O)COc4ccccc4)CC3)CC2)c2cc(F)ccc21 [compound 588] | < 25 | x (activity was measured to be greater than 5.0 μM) | < 25 | x (activity was measured to be greater than 5.0 μM)
CC#CC(C)OC(=O)N1CCC(N2CCC3(CC2)CN(C(C)=O)c2ccccc23)CC1 (stereo not shown) [compound 589] | < 25 | x (activity was measured to be greater than 5.0 μM) | < 25 | x (activity was measured to be greater than 5.0 μM)
CCCCC(=O)N1CCC(N2CCC3(CC2)CN(C(=O)N(C)C)c2ccc(F)cc23)CC1 [compound 590] | 25 to 100 | xx (activity was measured to be between 2.0 μM and 5.0 μM) | < 25 | xx (activity was measured to be between 2.0 μM and 5.0 μM)
CCOC(=O)N1CCC(N2CCC3(CCCc4ccccc43)CC2)CC1 [compound 591] | > 100 | xxx (activity was measured to be less than 2.0 μM) | 25 to 100 | xxx (activity was measured to be less than 2.0 μM)
CN(C)C(=O)N1CC2(CCN(C3CCN(C(=O)CC(F)(F)F)CC3)CC2)c2cc(F)ccc21 [compound 592] | 25 to 100 | xx (activity was measured to be between 2.0 μM and 5.0 μM) | < 25 | x (activity was measured to be greater than 5.0 μM)
Cc1ccc(N2CCC(N3CCC4(CC3)CN(C(=O)N(C)C)c3ccc(F)cc34)CC2)nn1 [compound 594] | 25 to 100 | x (activity was measured to be greater than 5.0 μM) | < 25 | xx (activity was measured to be between 2.0 μM and 5.0 μM)
CN(C)C(=O)N1CC2(CCN(C3CCN(C(=O)OCC4CC4)CC3)CC2)c2cc(F)ccc21 [compound 595] | 25 to 100 | xxx (activity was measured to be less than 2.0 μM) | 25 to 100 | xxx (activity was measured to be less than 2.0 μM)
CCCOC(=O)N1CCC(N2CCC3(CC2)CN(CCOC)c2ccc(F)cc23)CC1 [compound 596] | 25 to 100 | xxx (activity was measured to be less than 2.0 μM) | 25 to 100 | xxx (activity was measured to be less than 2.0 μM)
Cc1ccc2c(c1)C1(CCN(C3CC4CCC3C4)CC1)CN2C(=O)c1ccco1 (stereo not shown) [compound 597] | 25 to 100 | x (activity was measured to be greater than 5.0 μM) | < 25 | x (activity was measured to be greater than 5.0 μM)
CCOC(=O)N1CCC(N2CCC3(CC2)CN(C(=O)N2CCCCC2)c2ccc(F)cc23)CC1 [compound 598] | 25 to 100 | xxx (activity was measured to be less than 2.0 μM) | 25 to 100 | xxx (activity was measured to be less than 2.0 μM)
COc1cc2c(cc1OC)C1(CCN(C3CCCCCCCCCCC3)CC1)C[C@@H]2NC(C)=O [compound 599] | 25 to 100 | x (activity was measured to be greater than 5.0 μM) | 25 to 100 | x (activity was measured to be greater than 5.0 μM)
CC(=O)N1CC2(CCN(CC3=C(C)C=CCC3(C)C)CC2)c2cc(F)ccc21 [compound 600] | < 25 | x (activity was measured to be greater than 5.0 μM) | < 25 | x (activity was measured to be greater than 5.0 μM)
CC(=O)N[C@H]1CCC2(CCN(CC3CCOC3)CC2)c2ccccc21 (stereo partly shown) [compound 602] | 25 to 100 | xxx (activity was measured to be less than 2.0 μM) | 25 to 100 | xx (activity was measured to be between 2.0 μM and 5.0 μM)
CCOC(=O)N1CCC(N2CCC3(CC2)CN(C(C)=O)c2ccc(C(F)(F)F)cc23)CC1 [compound 603] | 25 to 100 | xxx (activity was measured to be less than 2.0 μM) | 25 to 100 | xxx (activity was measured to be less than 2.0 μM)
CCCCOC(=O)N1C2CCC1CC(N1CCC3(CC1)CN(C(C)=O)c1ccccc13)C2 (stereo not shown) [compound 604] | < 25 | x (activity was measured to be greater than 5.0 μM) | 25 to 100 | xxx (activity was measured to be less than 2.0 μM)
CC(=O)N[C@H]1CCC2(CCN(CC3CCCCC3)CC2)c2ccccc21 [compound 605] | 25 to 100 | xxx (activity was measured to be less than 2.0 μM) | 25 to 100 | xxx (activity was measured to be less than 2.0 μM)
CCOC(=O)N1C2CCC1CC(N1CCC3(CC1)CN(C(C)=O)c1ccc(C(C)C)cc13)C2 (stereo not shown) [compound 606] | 25 to 100 | xxx (activity was measured to be less than 2.0 μM) | 25 to 100 | xxx (activity was measured to be less than 2.0 μM)
COCCOC(=O)N1C2CCC1CC(N1CCC3(CC1)CN(C(C)=O)c1ccccc13)C2 (stereo not shown) [compound 607] | 25 to 100 | xxx (activity was measured to be less than 2.0 μM) | 25 to 100 | xxx (activity was measured to be less than 2.0 μM)
CN(C)C(=O)N1CC2(CCN(C[C@@H]3CCN(c4cnccn4)C3)CC2)c2cc(F)ccc21 [compound 608] | 25 to 100 | xxx (activity was measured to be less than 2.0 μM) | 25 to 100 | xxx (activity was measured to be less than 2.0 μM)
O=C1CC2(CCN(C3CCCCCC3)CC2)c2ccc(Cl)cc21 [compound 609] | 25 to 100 | xx (activity was measured to be between 2.0 μM and 5.0 μM) | 25 to 100 | xxx (activity was measured to be less than 2.0 μM)
CCOC(=O)N1CCC(N2CCC3(CC2)CN(C(C)=O)c2c(C)cc(C)cc23)CC1 [compound 610] | 25 to 100 | xxx (activity was measured to be less than 2.0 μM) | 25 to 100 | xxx (activity was measured to be less than 2.0 μM)
CC(=O)N1CC2(CCN(C3CCN(c4cncc(C5CC5)n4)CC3)CC2)c2ccccc21 [compound 611] | 25 to 100 | xxx (activity was measured to be less than 2.0 μM) | < 25 | x (activity was measured to be greater than 5.0 μM)
